Key:
[1] = molecular target: STE20/SPS1-related proline-alanine-rich protein kinase (Homo sapiens) (UniProt Q9UEW8); conditions: Compound concentration 1000.0 nM
[2] = molecular target: Phosphorylase b kinase regulatory subunit alpha, liver isoform (Homo sapiens) (UniProt P46019); conditions: Compound concentration 1000.0 nM
[3] = molecular target: Serine/threonine-protein kinase pim-3 (Homo sapiens) (UniProt Q86V86); conditions: Compound concentration 1000.0 nM
[4] = molecular target: Phosphatidylinositol 3-kinase catalytic subunit type 3 (Homo sapiens) (UniProt Q8NEB9); conditions: Compound concentration 1000.0 nM
[5] = molecular target: Cyclin-dependent kinase 4 (Homo sapiens) (UniProt P11802); conditions: Compound concentration 1000.0 nM
Cyclin-dependent kinase 4 (Homo sapiens), sequence (P11802 whole entry): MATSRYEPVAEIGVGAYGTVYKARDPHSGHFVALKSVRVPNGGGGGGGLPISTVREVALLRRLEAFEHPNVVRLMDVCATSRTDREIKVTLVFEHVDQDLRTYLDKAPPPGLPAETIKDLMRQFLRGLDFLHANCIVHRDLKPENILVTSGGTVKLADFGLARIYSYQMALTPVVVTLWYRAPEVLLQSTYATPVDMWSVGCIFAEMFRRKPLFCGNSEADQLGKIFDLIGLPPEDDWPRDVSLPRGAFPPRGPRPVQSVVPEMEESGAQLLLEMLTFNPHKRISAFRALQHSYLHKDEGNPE

[6] = molecular target: T1, MAP/microtubule affinity-regulating kinase 4 (Homo sapiens) (UniProt Q96L34); conditions: Compound concentration 1000.0 nM
T1 sequence (whole entry): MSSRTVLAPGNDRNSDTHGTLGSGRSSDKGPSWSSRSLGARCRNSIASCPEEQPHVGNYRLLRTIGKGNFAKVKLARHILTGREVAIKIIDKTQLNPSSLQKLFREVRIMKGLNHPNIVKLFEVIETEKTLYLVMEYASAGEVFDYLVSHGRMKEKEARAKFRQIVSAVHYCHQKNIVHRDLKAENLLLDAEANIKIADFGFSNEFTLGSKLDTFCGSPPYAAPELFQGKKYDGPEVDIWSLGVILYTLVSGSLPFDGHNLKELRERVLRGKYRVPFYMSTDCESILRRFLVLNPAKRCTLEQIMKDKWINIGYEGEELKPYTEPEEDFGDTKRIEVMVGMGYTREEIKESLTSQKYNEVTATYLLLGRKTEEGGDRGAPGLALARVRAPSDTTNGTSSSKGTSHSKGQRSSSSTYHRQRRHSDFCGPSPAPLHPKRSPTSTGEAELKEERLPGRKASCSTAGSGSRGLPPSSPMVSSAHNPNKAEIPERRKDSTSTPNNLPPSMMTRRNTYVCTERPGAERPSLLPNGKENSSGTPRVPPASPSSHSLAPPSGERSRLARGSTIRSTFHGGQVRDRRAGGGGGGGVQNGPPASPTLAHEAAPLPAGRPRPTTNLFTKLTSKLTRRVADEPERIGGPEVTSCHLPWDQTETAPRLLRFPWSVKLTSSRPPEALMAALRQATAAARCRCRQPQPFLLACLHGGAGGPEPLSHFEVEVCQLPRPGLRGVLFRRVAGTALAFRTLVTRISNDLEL

[7] = molecular target: T2, Muscle, skeletal receptor tyrosine-protein kinase (Homo sapiens) (UniProt O15146); conditions: Compound concentration 1000.0 nM
T2 sequence (whole entry): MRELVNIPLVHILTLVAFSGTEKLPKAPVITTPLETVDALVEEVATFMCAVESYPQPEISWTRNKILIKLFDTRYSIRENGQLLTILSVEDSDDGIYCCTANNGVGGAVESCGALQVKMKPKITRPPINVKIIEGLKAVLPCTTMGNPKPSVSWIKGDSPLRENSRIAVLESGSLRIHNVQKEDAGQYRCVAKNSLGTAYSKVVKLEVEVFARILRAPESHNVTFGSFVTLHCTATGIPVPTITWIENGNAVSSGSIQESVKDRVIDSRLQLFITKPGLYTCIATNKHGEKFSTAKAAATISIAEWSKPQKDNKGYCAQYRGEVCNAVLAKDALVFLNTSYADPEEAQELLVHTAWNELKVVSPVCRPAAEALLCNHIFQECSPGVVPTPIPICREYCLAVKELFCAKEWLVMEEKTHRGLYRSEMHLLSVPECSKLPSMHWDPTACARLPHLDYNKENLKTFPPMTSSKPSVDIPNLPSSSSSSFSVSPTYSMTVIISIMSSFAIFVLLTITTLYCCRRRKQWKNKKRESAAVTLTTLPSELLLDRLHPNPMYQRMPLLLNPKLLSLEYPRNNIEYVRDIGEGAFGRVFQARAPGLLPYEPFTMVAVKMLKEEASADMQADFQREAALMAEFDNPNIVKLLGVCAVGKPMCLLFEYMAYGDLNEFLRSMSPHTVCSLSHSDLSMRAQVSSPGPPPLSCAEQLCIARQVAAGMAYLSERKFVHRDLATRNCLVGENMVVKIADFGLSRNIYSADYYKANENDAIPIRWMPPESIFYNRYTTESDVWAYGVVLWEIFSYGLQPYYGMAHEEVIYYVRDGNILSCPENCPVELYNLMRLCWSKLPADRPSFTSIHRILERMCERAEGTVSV

[8] = molecular target: Serine/threonine-protein kinase ULK1 (Homo sapiens) (UniProt O75385); conditions: Compound concentration 1000.0 nM
[9] = molecular target: Leukocyte tyrosine kinase receptor (Homo sapiens) (UniProt P29376); conditions: Compound concentration 1000.0 nM
[10] = molecular target: Tyrosine-protein kinase receptor Tie-1 (Homo sapiens) (UniProt P35590); conditions: Compound concentration 1000.0 nM
Tyrosine-protein kinase receptor Tie-1 (Homo sapiens), sequence (P35590 whole entry): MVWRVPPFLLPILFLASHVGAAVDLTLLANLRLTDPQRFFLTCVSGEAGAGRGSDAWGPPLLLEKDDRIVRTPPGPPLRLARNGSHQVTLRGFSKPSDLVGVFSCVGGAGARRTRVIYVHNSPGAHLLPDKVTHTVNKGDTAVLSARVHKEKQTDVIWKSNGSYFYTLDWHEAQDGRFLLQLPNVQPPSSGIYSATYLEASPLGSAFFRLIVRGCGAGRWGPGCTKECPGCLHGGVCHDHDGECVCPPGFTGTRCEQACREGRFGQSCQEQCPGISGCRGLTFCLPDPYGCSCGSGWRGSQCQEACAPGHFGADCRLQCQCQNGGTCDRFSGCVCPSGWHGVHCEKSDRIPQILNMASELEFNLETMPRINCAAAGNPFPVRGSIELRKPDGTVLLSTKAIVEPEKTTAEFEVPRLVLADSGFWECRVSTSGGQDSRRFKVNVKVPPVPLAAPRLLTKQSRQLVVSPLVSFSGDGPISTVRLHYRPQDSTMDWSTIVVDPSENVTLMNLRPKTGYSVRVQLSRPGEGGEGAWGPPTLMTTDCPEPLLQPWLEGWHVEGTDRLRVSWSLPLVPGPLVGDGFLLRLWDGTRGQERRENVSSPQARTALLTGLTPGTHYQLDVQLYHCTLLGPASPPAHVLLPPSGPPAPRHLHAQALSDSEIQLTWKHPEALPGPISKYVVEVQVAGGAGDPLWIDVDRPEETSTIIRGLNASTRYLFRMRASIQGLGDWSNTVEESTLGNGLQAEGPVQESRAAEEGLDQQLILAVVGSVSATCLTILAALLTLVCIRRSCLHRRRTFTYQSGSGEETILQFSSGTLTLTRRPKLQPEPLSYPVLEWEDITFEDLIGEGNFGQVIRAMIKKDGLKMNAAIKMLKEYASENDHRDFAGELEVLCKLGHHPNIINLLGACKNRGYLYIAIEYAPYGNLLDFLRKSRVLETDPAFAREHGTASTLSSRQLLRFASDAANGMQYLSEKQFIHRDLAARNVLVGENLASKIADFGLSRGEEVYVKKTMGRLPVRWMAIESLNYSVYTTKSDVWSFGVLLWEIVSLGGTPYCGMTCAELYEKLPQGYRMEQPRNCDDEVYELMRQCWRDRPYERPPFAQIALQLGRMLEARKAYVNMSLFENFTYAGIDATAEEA

[11] = molecular target: Microtubule-associated serine/threonine-protein kinase 1 (Homo sapiens) (UniProt Q9Y2H9); conditions: Compound concentration 1000.0 nM
Microtubule-associated serine/threonine-protein kinase 1 (Homo sapiens), sequence (Q9Y2H9 whole entry, looked up): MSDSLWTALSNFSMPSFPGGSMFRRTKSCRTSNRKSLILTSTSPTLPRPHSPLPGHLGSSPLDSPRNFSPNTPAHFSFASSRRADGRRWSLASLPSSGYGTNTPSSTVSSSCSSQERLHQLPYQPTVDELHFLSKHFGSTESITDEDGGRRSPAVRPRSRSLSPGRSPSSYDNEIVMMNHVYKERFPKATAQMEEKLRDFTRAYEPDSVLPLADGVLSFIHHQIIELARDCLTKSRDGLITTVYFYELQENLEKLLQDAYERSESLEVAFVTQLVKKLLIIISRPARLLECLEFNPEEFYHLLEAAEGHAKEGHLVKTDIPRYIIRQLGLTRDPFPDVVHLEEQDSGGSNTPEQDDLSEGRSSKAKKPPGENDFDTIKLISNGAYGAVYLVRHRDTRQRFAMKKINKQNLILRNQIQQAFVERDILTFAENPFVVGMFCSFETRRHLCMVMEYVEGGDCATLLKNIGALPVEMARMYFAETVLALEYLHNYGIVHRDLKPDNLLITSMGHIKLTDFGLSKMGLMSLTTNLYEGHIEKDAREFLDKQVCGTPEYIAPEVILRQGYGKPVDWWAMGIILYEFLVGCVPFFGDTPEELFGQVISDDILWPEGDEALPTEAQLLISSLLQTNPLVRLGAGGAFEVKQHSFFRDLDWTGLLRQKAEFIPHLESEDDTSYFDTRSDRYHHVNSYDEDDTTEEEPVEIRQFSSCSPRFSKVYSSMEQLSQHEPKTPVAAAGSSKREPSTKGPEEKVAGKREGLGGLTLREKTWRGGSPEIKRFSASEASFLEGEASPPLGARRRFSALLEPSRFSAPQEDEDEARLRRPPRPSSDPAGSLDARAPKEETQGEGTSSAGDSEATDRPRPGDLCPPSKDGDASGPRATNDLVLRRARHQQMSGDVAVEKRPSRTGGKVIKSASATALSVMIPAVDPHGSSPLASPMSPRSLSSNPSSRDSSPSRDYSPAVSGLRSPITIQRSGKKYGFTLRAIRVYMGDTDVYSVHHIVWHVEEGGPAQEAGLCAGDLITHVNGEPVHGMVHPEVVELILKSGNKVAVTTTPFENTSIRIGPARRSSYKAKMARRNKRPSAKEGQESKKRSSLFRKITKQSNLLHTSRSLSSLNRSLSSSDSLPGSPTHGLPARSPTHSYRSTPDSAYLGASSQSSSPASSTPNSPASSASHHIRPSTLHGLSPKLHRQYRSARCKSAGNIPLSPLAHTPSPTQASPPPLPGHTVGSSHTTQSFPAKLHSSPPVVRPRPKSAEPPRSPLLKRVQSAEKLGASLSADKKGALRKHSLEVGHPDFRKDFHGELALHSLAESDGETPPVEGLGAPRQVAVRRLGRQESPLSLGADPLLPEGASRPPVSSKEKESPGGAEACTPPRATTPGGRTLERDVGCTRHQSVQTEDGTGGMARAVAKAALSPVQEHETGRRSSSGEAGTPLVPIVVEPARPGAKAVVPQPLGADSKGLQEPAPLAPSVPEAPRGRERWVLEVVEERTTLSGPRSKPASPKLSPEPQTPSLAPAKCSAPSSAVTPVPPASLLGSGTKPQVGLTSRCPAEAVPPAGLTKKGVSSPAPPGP

[12] = test system: Mast/stem cell growth factor receptor Kit (Homo sapiens), P10721 [L576P]; conditions: Compound concentration 1000.0 nM
[13] = molecular target: D(3) dopamine receptor (Homo sapiens) (UniProt P35462); conditions: Compound concentration 10.0 uM
D(3) dopamine receptor (Homo sapiens), sequence (P35462 whole entry): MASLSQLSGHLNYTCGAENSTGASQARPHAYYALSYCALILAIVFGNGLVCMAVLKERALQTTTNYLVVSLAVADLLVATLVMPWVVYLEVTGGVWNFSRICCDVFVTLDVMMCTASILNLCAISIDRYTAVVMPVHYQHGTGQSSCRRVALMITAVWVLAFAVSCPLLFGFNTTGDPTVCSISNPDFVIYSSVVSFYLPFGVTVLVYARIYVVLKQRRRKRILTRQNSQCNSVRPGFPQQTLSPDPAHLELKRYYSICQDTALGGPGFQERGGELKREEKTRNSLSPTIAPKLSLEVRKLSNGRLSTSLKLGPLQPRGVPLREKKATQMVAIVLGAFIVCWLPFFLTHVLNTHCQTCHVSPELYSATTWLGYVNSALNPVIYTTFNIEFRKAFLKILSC

Phosphorylase b kinase regulatory subunit alpha, liver isoform (Homo sapiens), sequence (P46019 whole entry, canonical isoform): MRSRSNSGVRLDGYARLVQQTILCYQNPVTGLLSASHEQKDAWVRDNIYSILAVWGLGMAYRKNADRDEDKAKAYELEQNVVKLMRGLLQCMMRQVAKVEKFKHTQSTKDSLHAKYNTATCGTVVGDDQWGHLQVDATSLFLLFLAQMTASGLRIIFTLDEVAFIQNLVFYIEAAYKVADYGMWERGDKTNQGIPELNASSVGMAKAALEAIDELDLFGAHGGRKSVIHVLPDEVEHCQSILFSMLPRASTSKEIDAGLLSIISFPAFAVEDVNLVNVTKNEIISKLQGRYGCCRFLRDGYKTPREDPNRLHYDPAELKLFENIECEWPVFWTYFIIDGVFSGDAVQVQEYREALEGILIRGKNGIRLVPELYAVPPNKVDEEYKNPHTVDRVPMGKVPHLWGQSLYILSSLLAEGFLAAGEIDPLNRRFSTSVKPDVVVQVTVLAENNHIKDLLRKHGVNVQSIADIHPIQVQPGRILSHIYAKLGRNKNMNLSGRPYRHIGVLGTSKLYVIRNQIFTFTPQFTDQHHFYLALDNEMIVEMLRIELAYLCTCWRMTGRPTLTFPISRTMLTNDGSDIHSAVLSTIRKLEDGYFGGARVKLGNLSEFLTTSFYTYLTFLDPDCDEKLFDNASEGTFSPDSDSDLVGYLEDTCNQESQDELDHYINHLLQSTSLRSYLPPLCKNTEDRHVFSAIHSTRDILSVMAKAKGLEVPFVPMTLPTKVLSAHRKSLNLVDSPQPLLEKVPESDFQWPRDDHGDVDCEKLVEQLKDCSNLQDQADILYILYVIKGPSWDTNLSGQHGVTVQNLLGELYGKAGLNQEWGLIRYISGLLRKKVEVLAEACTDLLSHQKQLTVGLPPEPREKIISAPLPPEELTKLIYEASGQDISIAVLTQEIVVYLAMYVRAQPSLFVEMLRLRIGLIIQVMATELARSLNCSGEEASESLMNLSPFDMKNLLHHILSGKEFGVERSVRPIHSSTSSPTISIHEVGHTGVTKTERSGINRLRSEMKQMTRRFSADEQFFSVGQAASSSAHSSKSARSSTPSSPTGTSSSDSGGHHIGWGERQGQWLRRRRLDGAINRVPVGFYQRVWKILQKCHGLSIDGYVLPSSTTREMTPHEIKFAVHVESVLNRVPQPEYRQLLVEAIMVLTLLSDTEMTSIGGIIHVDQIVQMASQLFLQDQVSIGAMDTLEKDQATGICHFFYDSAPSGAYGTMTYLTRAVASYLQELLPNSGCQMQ

**Q.** For `CN(C)C(=O)Cn1cc(-c2nc(C3(c4ccc(-c5cnc(N)nc5)cc4)CC3)no2)cn1` [BI 0153], which residual activity [1] is on record?
**A.** 100%

**Q.** What about the residual activity [2] of the same compound?
**A.** 91%

**Q.** And the residual activity [3]?
**A.** 100%

**Q.** And the residual activity [4]?
**A.** 96%

**Q.** What about the residual activity [5] of the same compound?
**A.** 44%

**Q.** What about the residual activity [6] of the same compound?
**A.** 96%

**Q.** What about the residual activity [7] of the same compound?
**A.** 100%

**Q.** And the residual activity [8]?
**A.** 75%

**Q.** What about the residual activity [9] of the same compound?
**A.** 90%

**Q.** And the residual activity [10]?
**A.** 98%

**Q.** What about the residual activity [11] of the same compound?
**A.** 100%

**Q.** What about the residual activity [12] of the same compound?
**A.** 84%

**Q.** What about the inhibition [13] of the same compound?
**A.** -2.44%

**Q.** What does the source list for `CN(C)C(=O)Cn1cc(-c2nc([C@@](C)(c3ccc(-c4cnc(N)nc4)cc3)C3CC3)no2)cn1` [BI 665915]?
**A.** residual activity [1]: 81%; residual activity [2]: 80%; residual activity [3]: 96%; residual activity [4]: 89%; residual activity [5]: 94%; residual activity [6]: 95%; residual activity [7]: 100%; residual activity [8]: 77%; residual activity [9]: 89%; residual activity [10]: 90%; residual activity [11]: 97%; residual activity [12]: 63%; inhibition [13]: -5.97%

From ChEMBL document CHEMBL4507276 (2021)
